# Experimental data published in US6413773B1, “Phosphatidylinositol 3-kinase inhibitors as stimulators of endocrine differentiation” (The Regents of the University of California, priority 1998, dated 2002).
# Experiments:
# [1] = tested on: islet hormone gene expression in human fetal ICCs; assay: Multiprobe ribonuclease protection assay of islet hormone mRNA; type: cell-based; conditions: ICCs 5 d, 100 nM wortmannin or 10 μM Ly294002, FIG. 1
# From the text: The use of human fetal tissue for these studies was reviewed and approved by the Institutional Review Board at our university. Human fetal pancreases at 18-24 gestational wk were obtained with appropriate permissions and patient consent through nonprofit organ procurement programs (Advanced Bioscience Resources, Oakland, Calif.; Anatomic Gift Foundation, Laurel, Md.). Experiments were started by the enzymatic digestion with collagenase P (Boehringer Mannheim Corp., Indianapolis, Ind.) of the human fetal pancreases followed by tissue culture for 5 d, which led to the formation in vitro of ICCs, as previously described in detail (Otonkoski et al. (1993) J. Clin. Invest. 92:1459-1466). […] Transcriptional analyses on total RNA ([…]) were performed using a multiprobe ribonuclease protection assay, as previously described (Otonkoski et al. (1993) J. Clin. Invest. 92:1459-1466). The housekeeping gene cyclophilin was used as an internal control, and yeast tRNA (10 μM) was included as a negative control. Probes used were of human origin and were described previously (Otonkoski et al. (1993) J. Clin. Invest. 92:1459-1466). Target RNAs were quantitated in autoradiographs by scanning densitometry (LKB UltroScan XL Laser) and integrated using Gel Scan XL software (Pharmacia LKB Biotechnology, Inc., Piscataway, N.J.). The probe-specific mRNA signals were normalized to the cyclophilin signal in each sample to account for differences in sample loading between lanes.
# [2] = tested on: fetal pancreatic cells growing as islet-like cell clusters; assay: Cytotoxicity and apoptosis in culture
# human fetal ICCs [3] = assay: [3H]thymidine incorporation into DNA; type: cell-based; conditions: ICCs 5 d with inhibitor, FIG. 4A
# Description: After incubation with various factors in culture, the ICCs were harvested, and measurements of insulin content, insulin release in response to glucose plus theophylline, and [^3H]thymidine incorporation into DNA were performed as described previously (Otonkoski et al. (1993) J. Clin. Invest. 92:1459-1466).
# human fetal ICCs [4] = assay: Triple immunofluorescence, confocal microscopy and morphometric analysis; type: cell-based
# Description: ICCs cultured for 5 d in either control medium or medium containing 10 μM Ly 294002 were paraffin embedded, and […] sections were stained for hormone immunoreactivity. To simultaneously identify cells producing insulin, glucagon, somatostatin, and pancreatic polypeptide (pp), we followed a modification of our previous protocol for multiple labeling (Otonkoski et al. (1996) J. Clin. Invest. 79:351-358). Briefly, sections were incubated for 1 h at room temperature with a mixture of primary antibodies: IgG fraction of a sheep anti-human insulin antiserum (The Binding Site, Birmingham, England) ([…]), mouse monoclonal anti-human glucagon (Sigma Chemical Co.) (1 mg/ml), rabbit anti-human somatostatin antiserum (Dako Corporation, Carpinteria, Calif.) (used at 1:100 dilution), and rabbit anti-human pp antiserum (Chemicon International, Inc., Temecula, Calif.) (used at 1:100 dilution). In separate sections, a mixture of normal sheep, rabbit, and mouse IgGs was used as control reference for specificity of primary antibodies. After washings in PBSDS (5 mM glycine, 0.2% donkey serum, 0.1% BSA), sections were incubated for 1 h at room temperature with a cocktail of F(ab′)2 fractions from secondary antibodies: lissamine-rhodamine-conjugated affinity-purified donkey anti-sheep IgGs ([…]); FITC-conjugated affinity-purified donkey anti-rabbit IgGs ([…]); and indodicarbocyanine-conjugated affinity-purified donkey anti-mouse IgGs ([…]). All F(ab′)2 were preadsorbed on appropriate multiple species to eliminate the possibility of crossreactivity in multiple labeling protocols (Jackson ImmunoResearch Labs, Inc., West Grove, Pa.). The sections were processed as previously described (Otonkoski et al. (1996) J. Clin. Invest. 79:351-358) and viewed on a laser scanning confocal microscope (model MRC1024; BioRad Laboratories, Hercules, Calif.).
# Sections were prepared from control and Ly294002 treated ICCs from three independent experiments. […] All images collected (one image per section) were then analyzed for total surface area and insulin, glucagon, somatostatin, and positive cell surface area by using measurement tools in the software NIH Image 1.60 (National Institutes of Health, Bethesda, Md.). Data were analyzed in Stat View 4.01 (Abacus Concepts, Inc., Berkeley, Calif.) for calculation of mean, standard deviation, and parametric statistic (t test).
# PIP3 = assay: Determination of total cellular PIP3 in [32P]orthophosphate-labeled ICCs; type: cell-based, human
# Description: The ICCs, which were pretreated for 5 d with PI3K inhibitors, NIC, HGF/SF, or control buffer, were subsequently harvested and suspended at a concentration of 2 3 10 5 cells/ml in buffer A (30 mM Hepes, pH 7.2, 110 mM NaCl, 10 mM KCl, 1 mM MgCl2, 10 mM glucose), and 1 mCi/ml [^32P]orthophosphate ([…]; DuPont/NEN) was added. The cells were incubated at 37° C. for 2 h and then washed 3× with buffer A. Depending on the type of experiment, the labeled islet cells were either directly lysed by addition of 3 ml chloroform/methanol (1:2, vol/vol), followed by 4 ml chloroform/2.4 M HCl (1: 1, vol/vol) (to measure basal levels of PIP3 ), or labeled cells were first stimulated with 25 ng/ml HGF/SF for the indicated times, and subsequently the reaction was stopped as above (to measure the inducible levels of PIP3 ). Phospholipids were extracted and analyzed by thinlayer chromatography, and the total cellular PIP3 was quantified, as we described previously in detail (Ptasznik et al. (1996) J. Biol. Chem. 271 :25204-25207).
# [5] = tissue culture medium; cited from earlier work
# PI3K [6] = assay: PI3K assay on immunoprecipitates from treated fetal ICCs; type: cell-based, human; conditions: for control PI3K activity eliminated, p85 immunoprecipitates: 100 nM wortmannin or 10 μM Ly294002, 5 d
# From the text: (§1) The use of human fetal tissue for these studies was reviewed and approved by the Institutional Review Board at our university. Human fetal pancreases at 18-24 gestational wk were obtained with appropriate permissions and patient consent through nonprofit organ procurement programs (Advanced Bioscience Resources, Oakland, Calif.; Anatomic Gift Foundation, Laurel, Md.). Experiments were started by the enzymatic digestion with collagenase P (Boehringer Mannheim Corp., Indianapolis, Ind.) of the human fetal pancreases followed by tissue culture for 5 d, which led to the formation in vitro of ICCs, as previously described in detail (Otonkoski et al. (1993) J. Clin. Invest. 92:1459-1466).
# PI3K inhibitors, NIC, or HGF/SF were added to the culture medium from the very beginning. Medium plus factor was changed every day for 5 d. For direct comparison, portions of the same pancreases were grown, treated with factors, and used for transcriptional analyses, insulin content and secretion, PI3K activities, and DNA synthesis.
# (§2) Aliquots of cell lysates normalized for protein content were incubated for 3 h with antiPI3K antibodies directed against the 85kD regulatory subunit or with antiphosphotyrosine antibodies (Upstate Biotechnology, Inc., Lake Placid, N.Y.). The immune complexes were absorbed onto protein A-Sepharose and washed as described (Ptasznik et al. (1995) J. Biol. Chem. 270:19969-19973). PI3K assays were performed directly on beads. Briefly, the reaction was carried out for 10 min in a buffer containing 40 mM Hepes, pH 7.2, 6 mM MgCl2, 1 mM EDTA, […] (Avanti Polar Lipids, Alabaster, Ala.), […], and 10 mCi [γ^32P]ATP (6,000 Ci/mmol; DuPont/NEN, Wilmington, Del.). Adenosine (0.2 mM) was added to the reaction mixture to inhibit residual PI 4 kinase activity. After the incubation, the reaction was stopped with methanol plus 2.4 N HCl (1:1, vol/vol), and lipids were extracted, analyzed by thin-layer chromatography, and quantified as described previously (Ptasznik et al. (1995) J. Biol. Chem. 270:19969-19973). In some experiments, the direct binding of PI3K to p190Met after HGF/SF stimulation of islet cells was determined, as previously described in detail (Graziani, et al. (1991) J. Biol. Chem. 266:22087-22090).
# human fetal ICCs [7] = assay: Insulin content and insulin release of ICCs; type: cell-based
# From the text: as §1, with “92:1459-1466). […] After incubation with various factors in culture, the ICCs were harvested, and measurements of insulin content, insulin release in response to glucose plus theophylline, and [^3H]thymidine incorporation into DNA were performed as described previously (Otonkoski et al. (1993) J. Clin. Invest. 92:1459-1466).” for “92:1459-1466).”
# purified fetal islets = assay: Endocrine function in purified fetal islets; type: cell-based, human
# Description: Effects of PI3K inhibitors on endocrine function were tested not only in ICCs, but also in purified islets. Undifferentiated epithelial cells account for z75-80% of the total cell mass in ICCs. By contrast, purified fetal islets contain about 10 fold fewer undifferentiated epithelial cells (Beattie et al. (1996) Diabetes. 46:244-248). Purification of human fetal pancreatic islets was performed as recently described (Beattie et al. (1996) Diabetes. 46:244-248). Fetal islets, identified as homogeneous differentiated clusters of dithizonepositive cells, were incubated with factors as above.
# p85 protein = assay: Western blotting of p85 protein; type: cell-based, human; conditions: during NIC treatment
# [8] = tested on: islet hormone gene expression in human fetal ICCs; conditions: earlier publications; cited from earlier work
# PI3K [9] = assay: Direct effect on PI3K activity in vitro in p85 immunoprecipitates; type: biochemical, human; conditions: various concentrations of NIC
# Description: as §2
compound,measurement,setting,value
"O=c1cc(N2CCOCC2)oc2c(-c3ccccc3)cccc12 [Ly294002, 2-(4-Morpholinyl)-8-phenyl-4 H-1-benzopyran-4-one]",transcriptional level of glucagon,[1],increased
same,transcriptional level of insulin,[1],increased
same,transcriptional level of somatostatin,[1],increased
same,cytotoxicity (general statement),[2],no significant cytotoxicity
same,[3H]thymidine incorporation into DNA,human fetal ICCs [3],significantly decreased
same,increase in the total percentage of endocrine-positive cells versus control ICCs,"human fetal ICCs [4]; 10 μM Ly294002, 5 d",4.4 fold
same,frequency of cells coexpressing multiple hormones,"human fetal ICCs [4]; 10 μM Ly294002, 5 d, FIG. 3",increased
same,total endocrine cell surface area,"human fetal ICCs [4]; 10 μM Ly294002, 5 d, FIG. 3",significantly increased
same,"endocrine surface area for all hormones (insulin; somatostatin and pp; glucagon), percent of total ICC surface area","human fetal ICCs [4]; 10 μM Ly294002, 5 d, FIG. 3, n=3",significantly increased
same,number of hormone producing cells growing in ICCs,human fetal ICCs [4]; blockade of PI3K activity in culture,significantly increased
same,rise in PIP3 formation stimulated by growth factors,"PIP3; 100 nM wortmannin or 10 μM Ly294002, intact labeled islet cells",almost completely inhibited
same,stability in culture medium,[5],very stable
same,"control PI3K activity eliminated, p85 immunoprecipitates",PI3K [6]; FIG. 7,90%
same,insulin content per cellular DNA versus untreated control,"human fetal ICCs [7]; ICCs cultured 5 d with inhibitor, FIG. 2A",significantly increased
same,insulin secretion per cellular DNA versus untreated control,"human fetal ICCs [7]; ICCs cultured 5 d with inhibitor, glucose plus theophylline, FIG. 2B",significantly increased
"NC(=O)c1cccnc1 [NIC, nicotinamide]",effect on endocrine function in purified fetal islets,purified fetal islets,no effect
same,actual level of p85 protein,p85 protein,no change
same,insulin and glucagon gene transcription and insulin protein biosynthesis,[8],an increase
same,basal level of PIP3 versus control cells,"PIP3; 10 mM NIC, 5 d, FIG. 6",significantly lower
same,"amount of PI3K activity in p85 immunoprecipitates, lower than untreated cells","PI3K [6]; 10 mM NIC, 5 d, FIG. 7",about fivefold
same,inducibility of cellular PI3K activity by growth factors and de novo formation of PIP3,PI3K [6]; NIC-treated cells,significantly reduced
same,direct inhibitory effect on PI3K activity in vitro,PI3K [9],not a direct inhibitor
CO[C@@]12[C@H](COC(N)=O)C3=C(C(=O)C(C)=C(N)C3=O)N1C[C@@H]1N[C@@H]12 [mitomycin C],basal PI3K activity in fetal islet cells significantly affected,PI3K [6]; mitomycin C-treated cells,neither
same,insulin protein expression,"human fetal ICCs [7]; 2 mg/ml mitomycin C for 5 d, FIG. 4B",does not affect
COC[C@H]1OC(=O)c2coc3c2[C@@]1(C)C1=C(C3=O)[C@@H]2CCC(=O)[C@@]2(C)C[C@H]1OC(C)=O [wortmannin],cytotoxicity and apoptosis,"[2]; continuous treatment 5 d, 100 nM wortmannin, 10 μM Ly294002",does not cause notable cytotoxity nor induce apoptosis
same,stability in culture medium,[5],much less stable
same,"control PI3K activity eliminated, p85 immunoprecipitates",PI3K [6]; FIG. 7,90%
hepatocyte growth factor/scatter factor [HGF/SF],insulin and glucagon gene transcription and insulin protein biosynthesis,[8],marked down-regulation
same,increase in levels of PIP3,"PIP3; ICCs growing continuously (5 d) with 25 ng/ml HGF/SF, FIG. 6",threefold
same,cellular PI3K activity after acute stimulation,"PI3K [6]; 25 ng/ml HGF/SF, ICCs starved 24 h, antiphosphotyrosine immunoprecipitates, FIG. 5",robustly activated
